# Reference: ChEMBL document CHEMBL1201862, “PubChem BioAssay data set” (2004)
#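 Test compounds were applied to cells in 96-well plates for 48 hours at 5 doses. The concentration for 50% growth inhibition is given as GI50.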 Activity calls are given as the source filed them. Rule as the data show it: active = GI50 up to about 1.1 µM and inactive = higher.
# Columns and labels:
# Assay in all cases: DTP human tumour cell line panel, 48 h
# HOP-62 = tested on: HOP-62
# KM12 = tested on: KM12
# HT-29 = tested on: HT-29
# NCI-H23 = tested on: NCI-H23
# HCT-116 = tested on: HCT-116
# EKVX = tested on: EKVX
# OVCAR-3 = tested on: OVCAR-3
# SW-620 = tested on: SW-620
# NCI-H226 = tested on: NCI-H226
# NCI-H522 = tested on: NCI-H522
# UACC-62 = tested on: UACC-62
# SN12C = tested on: SN12C
# COLO 205 = tested on: COLO 205
# HOP-92 = tested on: HOP-92
# Hs-578T = tested on: Hs-578T
# M14 = tested on: M14
# PC-3 = tested on: PC-3
# MDA-MB-231 = tested on: MDA-MB-231
# MDA-N = tested on: MDA-N
# SR = tested on: SR
SMILES,GI50 (HOP-62),GI50 (KM12),GI50 (HT-29),GI50 (NCI-H23),GI50 (HCT-116),GI50 (EKVX),GI50 (OVCAR-3),GI50 (SW-620),GI50 (NCI-H226),GI50 (NCI-H522),GI50 (UACC-62),GI50 (SN12C),GI50 (COLO 205),GI50 (HOP-92),GI50 (Hs-578T),GI50 (M14),GI50 (PC-3),GI50 (MDA-MB-231),GI50 (MDA-N),GI50 (SR)
O=C1C=C(C2OC(CO)C(O)C2O)C(=O)N1 (stereo unspecified),> 100 µM (inactive),> 100 µM (inactive),> 100 µM (inactive),> 100 µM (inactive),> 100 µM (inactive),> 100 µM (inactive),> 100 µM (inactive),26 µM (inactive),> 100 µM (inactive),19.8 µM (inactive),> 100 µM (inactive),> 100 µM (inactive),76.9 µM (inactive),> 100 µM (inactive),–,–,–,–,–,–
O=C(C[C@H](NC(=O)OCc1ccccc1)C(=O)NC1Cc2ccccc2OC1=O)OCc1ccccc1 (stereo partly specified),> 100 µM (inactive),> 100 µM (inactive),–,> 100 µM (inactive),29.2 µM (inactive),–,> 100 µM (inactive),–,> 100 µM (inactive),> 100 µM (inactive),> 10 µM (inactive),36.4 µM (inactive),> 100 µM (inactive),> 100 µM (inactive),> 100 µM (inactive),> 100 µM (inactive),21.8 µM (inactive),26.7 µM (inactive),> 100 µM (inactive),> 100 µM (inactive)
CN(C(=O)C1(C(=O)C=[N+]=[N-])CC1)c1ccccc1,> 100 µM (inactive),> 100 µM (inactive),> 100 µM (inactive),> 100 µM (inactive),> 100 µM (inactive),> 100 µM (inactive),> 100 µM (inactive),> 100 µM (inactive),> 100 µM (inactive),83.6 µM (inactive),> 100 µM (inactive),> 100 µM (inactive),> 100 µM (inactive),–,> 100 µM (inactive),> 100 µM (inactive),> 100 µM (inactive),> 100 µM (inactive),> 100 µM (inactive),> 100 µM (inactive)
CCOC(=O)NC(C(F)(F)F)(C(F)(F)F)P(=O)(OCC(C)C)OCC(C)C,30 µM (inactive),14 µM (inactive),11.5 µM (inactive),–,2.55 µM (inactive),21.6 µM (inactive),19.1 µM (inactive),3.82 µM (inactive),13.9 µM (inactive),2.49 µM (inactive),11.7 µM (inactive),16.2 µM (inactive),10.2 µM (inactive),9.38 µM (inactive),14.9 µM (inactive),11.6 µM (inactive),6.37 µM (inactive),15.1 µM (inactive),6.04 µM (inactive),9.77 µM (inactive)
CCOC(=O)c1csc(NC(=O)CCN2CCCC2)n1,> 100 µM (inactive),> 100 µM (inactive),> 100 µM (inactive),> 100 µM (inactive),–,> 100 µM (inactive),> 100 µM (inactive),> 100 µM (inactive),> 100 µM (inactive),–,> 100 µM (inactive),–,> 100 µM (inactive),> 100 µM (inactive),–,> 100 µM (inactive),> 100 µM (inactive),> 100 µM (inactive),> 100 µM (inactive),78.5 µM (inactive)
CC(=O)OCc1nnn2c1CCC2,> 100 µM (inactive),> 100 µM (inactive),> 100 µM (inactive),> 10 µM (inactive),> 100 µM (inactive),> 100 µM (inactive),> 100 µM (inactive),> 100 µM (inactive),–,> 100 µM (inactive),> 100 µM (inactive),> 100 µM (inactive),–,> 100 µM (inactive),–,> 100 µM (inactive),–,–,–,> 100 µM (inactive)
O=C1CC2(CCC(O)(c3cccs3)C(C(=O)c3cccs3)C2)C(=O)c2ccccc2N1 (stereo unspecified),> 100 µM (inactive),–,40.6 µM (inactive),> 100 µM (inactive),53 µM (inactive),> 100 µM (inactive),63.8 µM (inactive),> 100 µM (inactive),> 100 µM (inactive),–,> 100 µM (inactive),> 100 µM (inactive),33.7 µM (inactive),> 100 µM (inactive),> 100 µM (inactive),> 100 µM (inactive),51.8 µM (inactive),> 100 µM (inactive),> 100 µM (inactive),> 100 µM (inactive)
C/C(=N\Oc1cc(Cl)ncn1)c1ccccn1,38.1 µM (inactive),> 100 µM (inactive),95.7 µM (inactive),34.1 µM (inactive),> 100 µM (inactive),38.5 µM (inactive),20.2 µM (inactive),84.7 µM (inactive),> 100 µM (inactive),17.9 µM (inactive),47.5 µM (inactive),> 100 µM (inactive),> 100 µM (inactive),20.5 µM (inactive),32.8 µM (inactive),18.4 µM (inactive),45.3 µM (inactive),19.8 µM (inactive),> 100 µM (inactive),31.7 µM (inactive)
COc1ccc(-c2cc3[nH]nc(N)c3c(=O)o2)cc1,–,> 100 µM (inactive),> 100 µM (inactive),> 100 µM (inactive),> 100 µM (inactive),14 µM (inactive),–,> 100 µM (inactive),–,–,–,> 100 µM (inactive),> 100 µM (inactive),> 100 µM (inactive),–,> 100 µM (inactive),–,–,–,> 100 µM (inactive)
COc1ccc2c(c1)C(=O)/C(=C/c1ccccc1)C2,29.6 µM (inactive),> 100 µM (inactive),31.6 µM (inactive),42.4 µM (inactive),–,–,39.2 µM (inactive),–,25 µM (inactive),45.2 µM (inactive),52.6 µM (inactive),> 100 µM (inactive),–,59.7 µM (inactive),> 100 µM (inactive),27 µM (inactive),68.9 µM (inactive),–,39 µM (inactive),76.7 µM (inactive)
C=C(C)C(=O)OC1CCC2(C)C(CCC3C2CCC2(C)C(c4ccc(=O)oc4)CC4OC432)C1 (stereo unspecified),3.31 µM (inactive),6.4 µM (inactive),7.94 µM (inactive),3.49 µM (inactive),2.75 µM (inactive),2.42 µM (inactive),4.57 µM (inactive),6.34 µM (inactive),9.42 µM (inactive),2.95 µM (inactive),3.33 µM (inactive),3.61 µM (inactive),8.18 µM (inactive),0.804 µM (active),–,–,–,–,–,–
C=CCCCCCCCCC(=O)O [UNDECYLENIC ACID],105 µM (inactive),27.7 µM (inactive),118 µM (inactive),122 µM (inactive),110 µM (inactive),116 µM (inactive),67 µM (inactive),125 µM (inactive),155 µM (inactive),105 µM (inactive),79.8 µM (inactive),149 µM (inactive),41.3 µM (inactive),83.2 µM (inactive),–,–,–,–,–,–
